# Results as given in article PMC10891602, “Improvement of Carotenoids’ Production by Increasing the Activity of Beta-Carotene Ketolase with Different Strategies” (Microorganisms, 2024).
# How the values were obtained:
# CrtWBsp = biological target: T1, CrtWBsp (Brevundimonas sp. NBRC 101024, UniProt Q4W8B8); experiment: HPLC of echinenone and canthaxanthin formed by crude extract; format: biochemical; conditions: Fe2+, 2-oxoglutarate, ascorbate, NADPH, ATP; pH 8.0; 30 °C; 3 h
# T1 construct: gene crtW
# T1 sequence (Q4W8B8 1-244): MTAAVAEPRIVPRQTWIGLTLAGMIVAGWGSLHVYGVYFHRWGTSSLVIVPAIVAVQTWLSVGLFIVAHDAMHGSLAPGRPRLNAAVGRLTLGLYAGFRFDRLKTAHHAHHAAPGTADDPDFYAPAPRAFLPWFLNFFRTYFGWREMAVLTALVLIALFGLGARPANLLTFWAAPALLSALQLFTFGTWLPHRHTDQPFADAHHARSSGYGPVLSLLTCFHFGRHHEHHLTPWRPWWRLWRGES
# CzW1 = biological target: T2, CzW1 (Chromochloris zofingiensis, UniProt Q5U931); experiment: as above; format: biochemical; conditions: Fe2+, 2-oxoglutarate, ascorbate, NADPH, ATP; pH 8.0; 30 °C; 3 h
# T2 construct: gene bkt/crto
# T2 sequence (Q5U931 1-312): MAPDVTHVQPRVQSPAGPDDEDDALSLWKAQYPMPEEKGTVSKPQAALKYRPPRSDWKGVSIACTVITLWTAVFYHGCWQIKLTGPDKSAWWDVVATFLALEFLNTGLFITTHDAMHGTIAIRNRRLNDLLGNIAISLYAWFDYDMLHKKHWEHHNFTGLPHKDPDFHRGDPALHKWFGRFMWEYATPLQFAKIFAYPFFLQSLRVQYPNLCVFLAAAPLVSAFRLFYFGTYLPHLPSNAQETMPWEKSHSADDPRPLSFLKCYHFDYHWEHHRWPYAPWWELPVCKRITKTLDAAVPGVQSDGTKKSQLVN
smiles,measurement,setting,value
CC1=C(/C=C/C(C)=C/C=C/C(C)=C/C=C/C=C(C)/C=C/C=C(C)/C=C/C2=C(C)CCCC2(C)C)C(C)(C)CCC1 [β-carotene],HPLC of echinenone and canthaxanthin formed by crude extract,CrtWBsp,β-carotene ketolase from p30CrtWBsp was more efficient in the production of echinenone and canthaxanthin
same,HPLC of echinenone and canthaxanthin formed by crude extract,CzW1,canthaxanthin was only detected in enzymatic solution containing protein extracts from E. coli with pCrtWBsp and pCzW1
